Measurements published in ChEMBL document CHEMBL3991601, “The target landscape of clinical kinase drugs” (Science, 2017).
pKd: −log10 of the molar value. Calls of active or inactive are those of the source.

Legend:
[1] = target: T1, Dynamin-like GTPase OPA1, mitochondrial (Homo sapiens, UniProt O60313)
T1 sequence (O60313 whole entry): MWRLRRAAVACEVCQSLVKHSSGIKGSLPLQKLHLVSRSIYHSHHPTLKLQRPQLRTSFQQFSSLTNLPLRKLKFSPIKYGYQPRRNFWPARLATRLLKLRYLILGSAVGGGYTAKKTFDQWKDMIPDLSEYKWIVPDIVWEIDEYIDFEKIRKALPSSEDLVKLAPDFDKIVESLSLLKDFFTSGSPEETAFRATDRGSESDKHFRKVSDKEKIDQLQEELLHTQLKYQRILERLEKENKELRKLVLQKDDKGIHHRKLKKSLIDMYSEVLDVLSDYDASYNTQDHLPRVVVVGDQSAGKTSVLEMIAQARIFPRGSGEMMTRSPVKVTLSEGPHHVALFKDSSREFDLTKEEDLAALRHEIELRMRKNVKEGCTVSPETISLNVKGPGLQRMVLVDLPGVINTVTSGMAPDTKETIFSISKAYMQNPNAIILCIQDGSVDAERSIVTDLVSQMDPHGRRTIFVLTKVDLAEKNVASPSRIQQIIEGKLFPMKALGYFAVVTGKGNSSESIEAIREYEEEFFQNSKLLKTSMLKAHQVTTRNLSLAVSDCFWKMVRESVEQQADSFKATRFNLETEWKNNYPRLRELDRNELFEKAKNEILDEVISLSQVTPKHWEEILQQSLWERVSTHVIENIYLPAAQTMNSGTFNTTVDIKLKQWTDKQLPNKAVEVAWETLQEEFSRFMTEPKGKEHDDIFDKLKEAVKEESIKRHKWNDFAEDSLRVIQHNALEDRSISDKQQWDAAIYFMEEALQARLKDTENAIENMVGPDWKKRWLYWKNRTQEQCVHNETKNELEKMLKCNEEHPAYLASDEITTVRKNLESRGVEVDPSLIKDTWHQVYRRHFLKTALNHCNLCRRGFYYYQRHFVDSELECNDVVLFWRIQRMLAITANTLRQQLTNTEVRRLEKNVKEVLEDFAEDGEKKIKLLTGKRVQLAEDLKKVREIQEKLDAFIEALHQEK

DNA topoisomerase 2-beta = DNA topoisomerase 2-beta (Homo sapiens, UniProt Q02880)
[2] = target: Ribosomal protein S6 kinase beta-1 (Homo sapiens, UniProt P23443)
Sequence of Ribosomal protein S6 kinase beta-1 (P23443 whole entry): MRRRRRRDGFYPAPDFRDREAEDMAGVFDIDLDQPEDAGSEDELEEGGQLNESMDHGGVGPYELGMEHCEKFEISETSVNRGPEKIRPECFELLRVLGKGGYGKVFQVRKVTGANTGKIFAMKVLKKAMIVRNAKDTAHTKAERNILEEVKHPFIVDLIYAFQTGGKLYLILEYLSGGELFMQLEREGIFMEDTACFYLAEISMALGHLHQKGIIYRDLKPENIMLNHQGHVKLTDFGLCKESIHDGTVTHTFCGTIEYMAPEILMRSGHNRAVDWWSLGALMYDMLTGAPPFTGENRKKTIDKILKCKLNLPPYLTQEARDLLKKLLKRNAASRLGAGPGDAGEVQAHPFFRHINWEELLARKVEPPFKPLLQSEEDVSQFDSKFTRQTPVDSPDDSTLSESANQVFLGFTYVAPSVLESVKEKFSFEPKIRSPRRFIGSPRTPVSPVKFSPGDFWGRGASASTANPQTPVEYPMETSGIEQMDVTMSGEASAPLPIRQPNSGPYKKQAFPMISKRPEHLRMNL

Ephrin type-A receptor 7 = Ephrin type-A receptor 7 (Homo sapiens, UniProt Q15375)
Sequence of Ephrin type-A receptor 7 (Q15375 whole entry, canonical isoform): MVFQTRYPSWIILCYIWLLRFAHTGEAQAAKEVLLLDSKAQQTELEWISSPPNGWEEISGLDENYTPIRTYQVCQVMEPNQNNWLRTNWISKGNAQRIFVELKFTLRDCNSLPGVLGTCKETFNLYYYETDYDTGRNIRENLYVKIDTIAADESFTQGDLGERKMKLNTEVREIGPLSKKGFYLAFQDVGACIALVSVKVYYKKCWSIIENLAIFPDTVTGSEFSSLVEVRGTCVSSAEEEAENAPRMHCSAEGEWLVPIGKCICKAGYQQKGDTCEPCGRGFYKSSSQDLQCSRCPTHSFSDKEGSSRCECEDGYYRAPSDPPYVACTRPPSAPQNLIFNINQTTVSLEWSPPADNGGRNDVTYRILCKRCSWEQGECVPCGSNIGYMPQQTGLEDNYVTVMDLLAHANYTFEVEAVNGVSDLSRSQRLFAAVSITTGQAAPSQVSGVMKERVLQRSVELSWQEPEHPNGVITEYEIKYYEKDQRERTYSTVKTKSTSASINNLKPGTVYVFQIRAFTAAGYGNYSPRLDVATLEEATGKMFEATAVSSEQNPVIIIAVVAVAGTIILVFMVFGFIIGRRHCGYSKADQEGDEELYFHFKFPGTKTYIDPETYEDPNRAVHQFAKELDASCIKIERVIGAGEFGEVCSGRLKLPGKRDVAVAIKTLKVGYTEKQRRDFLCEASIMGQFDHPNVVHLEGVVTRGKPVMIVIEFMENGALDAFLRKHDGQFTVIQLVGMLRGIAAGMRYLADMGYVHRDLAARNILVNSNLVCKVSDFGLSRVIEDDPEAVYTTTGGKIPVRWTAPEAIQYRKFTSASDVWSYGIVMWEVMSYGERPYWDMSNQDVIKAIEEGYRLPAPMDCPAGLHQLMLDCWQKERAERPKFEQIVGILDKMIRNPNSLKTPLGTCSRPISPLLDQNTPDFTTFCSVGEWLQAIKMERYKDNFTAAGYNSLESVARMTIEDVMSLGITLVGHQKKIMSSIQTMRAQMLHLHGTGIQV

[3] = target: Casein kinase I isoform alpha (Homo sapiens, UniProt P48729)
Sequence of Casein kinase I isoform alpha (P48729 whole entry, canonical isoform): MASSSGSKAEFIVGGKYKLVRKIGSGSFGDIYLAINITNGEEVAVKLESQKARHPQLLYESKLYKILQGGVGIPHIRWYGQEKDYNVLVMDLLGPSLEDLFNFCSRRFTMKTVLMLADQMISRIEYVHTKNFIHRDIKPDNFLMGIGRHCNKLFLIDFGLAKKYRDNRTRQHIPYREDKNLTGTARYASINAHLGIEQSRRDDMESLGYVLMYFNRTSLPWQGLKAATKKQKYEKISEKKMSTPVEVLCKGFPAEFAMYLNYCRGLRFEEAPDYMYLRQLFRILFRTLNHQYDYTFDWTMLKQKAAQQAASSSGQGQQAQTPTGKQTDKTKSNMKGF

[4] = target: Hepatocyte growth factor receptor (Homo sapiens, UniProt P08581)
Sequence of Hepatocyte growth factor receptor (P08581 whole entry): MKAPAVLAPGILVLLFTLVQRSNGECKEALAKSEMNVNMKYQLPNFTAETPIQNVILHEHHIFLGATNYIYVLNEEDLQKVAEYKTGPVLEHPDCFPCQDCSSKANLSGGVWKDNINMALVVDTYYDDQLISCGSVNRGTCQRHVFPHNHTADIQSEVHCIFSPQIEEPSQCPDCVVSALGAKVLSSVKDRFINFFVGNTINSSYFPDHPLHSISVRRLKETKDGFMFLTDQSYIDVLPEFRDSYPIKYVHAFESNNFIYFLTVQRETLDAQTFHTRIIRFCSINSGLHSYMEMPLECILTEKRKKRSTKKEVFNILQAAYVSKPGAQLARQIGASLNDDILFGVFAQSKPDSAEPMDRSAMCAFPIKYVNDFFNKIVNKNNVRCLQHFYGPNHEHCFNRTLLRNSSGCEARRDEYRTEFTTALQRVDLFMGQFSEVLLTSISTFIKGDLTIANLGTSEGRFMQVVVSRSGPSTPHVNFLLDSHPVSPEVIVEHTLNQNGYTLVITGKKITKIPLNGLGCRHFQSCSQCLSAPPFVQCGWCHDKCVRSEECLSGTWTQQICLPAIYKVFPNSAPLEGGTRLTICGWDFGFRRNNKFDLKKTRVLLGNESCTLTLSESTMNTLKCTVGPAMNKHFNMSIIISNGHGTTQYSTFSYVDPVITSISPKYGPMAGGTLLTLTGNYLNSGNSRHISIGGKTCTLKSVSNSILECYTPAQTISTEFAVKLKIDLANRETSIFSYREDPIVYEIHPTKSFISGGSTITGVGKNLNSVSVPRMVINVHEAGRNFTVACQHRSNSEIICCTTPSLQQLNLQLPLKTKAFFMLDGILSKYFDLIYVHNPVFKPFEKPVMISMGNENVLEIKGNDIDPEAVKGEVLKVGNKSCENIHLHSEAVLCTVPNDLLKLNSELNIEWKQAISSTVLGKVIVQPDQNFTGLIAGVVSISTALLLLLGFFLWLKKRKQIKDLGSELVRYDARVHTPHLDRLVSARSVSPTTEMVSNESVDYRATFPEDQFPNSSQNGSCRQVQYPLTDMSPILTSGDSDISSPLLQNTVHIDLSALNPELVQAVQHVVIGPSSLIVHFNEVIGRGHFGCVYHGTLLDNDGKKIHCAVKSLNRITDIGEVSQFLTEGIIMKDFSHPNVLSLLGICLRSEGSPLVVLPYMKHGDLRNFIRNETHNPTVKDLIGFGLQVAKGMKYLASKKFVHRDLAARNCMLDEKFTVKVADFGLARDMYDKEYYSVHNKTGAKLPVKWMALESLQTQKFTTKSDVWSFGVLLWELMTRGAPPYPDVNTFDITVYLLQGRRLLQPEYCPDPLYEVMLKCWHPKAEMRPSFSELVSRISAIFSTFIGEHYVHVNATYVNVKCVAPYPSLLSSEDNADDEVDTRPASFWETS

[5] = target: Cyclin-dependent kinase 1 (Homo sapiens, UniProt P06493)
[6] = target: T2, Uncharacterized protein FLJ45252 (Homo sapiens, UniProt Q6ZSR9); settings: read-out: Kd apparent; k-562, colo 205, sk-n-be(2) and mv-4-11
T2 sequence (Q6ZSR9 whole entry): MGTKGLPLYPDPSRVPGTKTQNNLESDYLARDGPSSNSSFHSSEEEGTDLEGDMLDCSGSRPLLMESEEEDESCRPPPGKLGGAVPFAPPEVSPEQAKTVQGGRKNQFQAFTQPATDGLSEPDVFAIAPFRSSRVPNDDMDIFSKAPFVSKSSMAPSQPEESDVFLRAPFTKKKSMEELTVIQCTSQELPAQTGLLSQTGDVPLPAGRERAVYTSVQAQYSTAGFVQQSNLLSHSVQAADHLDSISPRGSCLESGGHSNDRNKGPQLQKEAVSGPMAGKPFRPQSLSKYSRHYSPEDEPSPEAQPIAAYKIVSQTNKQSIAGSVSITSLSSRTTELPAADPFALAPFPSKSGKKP

[7] = target: Non-receptor tyrosine-protein kinase TYK2 (Homo sapiens, UniProt P29597)
Sequence of Non-receptor tyrosine-protein kinase TYK2 (P29597 whole entry): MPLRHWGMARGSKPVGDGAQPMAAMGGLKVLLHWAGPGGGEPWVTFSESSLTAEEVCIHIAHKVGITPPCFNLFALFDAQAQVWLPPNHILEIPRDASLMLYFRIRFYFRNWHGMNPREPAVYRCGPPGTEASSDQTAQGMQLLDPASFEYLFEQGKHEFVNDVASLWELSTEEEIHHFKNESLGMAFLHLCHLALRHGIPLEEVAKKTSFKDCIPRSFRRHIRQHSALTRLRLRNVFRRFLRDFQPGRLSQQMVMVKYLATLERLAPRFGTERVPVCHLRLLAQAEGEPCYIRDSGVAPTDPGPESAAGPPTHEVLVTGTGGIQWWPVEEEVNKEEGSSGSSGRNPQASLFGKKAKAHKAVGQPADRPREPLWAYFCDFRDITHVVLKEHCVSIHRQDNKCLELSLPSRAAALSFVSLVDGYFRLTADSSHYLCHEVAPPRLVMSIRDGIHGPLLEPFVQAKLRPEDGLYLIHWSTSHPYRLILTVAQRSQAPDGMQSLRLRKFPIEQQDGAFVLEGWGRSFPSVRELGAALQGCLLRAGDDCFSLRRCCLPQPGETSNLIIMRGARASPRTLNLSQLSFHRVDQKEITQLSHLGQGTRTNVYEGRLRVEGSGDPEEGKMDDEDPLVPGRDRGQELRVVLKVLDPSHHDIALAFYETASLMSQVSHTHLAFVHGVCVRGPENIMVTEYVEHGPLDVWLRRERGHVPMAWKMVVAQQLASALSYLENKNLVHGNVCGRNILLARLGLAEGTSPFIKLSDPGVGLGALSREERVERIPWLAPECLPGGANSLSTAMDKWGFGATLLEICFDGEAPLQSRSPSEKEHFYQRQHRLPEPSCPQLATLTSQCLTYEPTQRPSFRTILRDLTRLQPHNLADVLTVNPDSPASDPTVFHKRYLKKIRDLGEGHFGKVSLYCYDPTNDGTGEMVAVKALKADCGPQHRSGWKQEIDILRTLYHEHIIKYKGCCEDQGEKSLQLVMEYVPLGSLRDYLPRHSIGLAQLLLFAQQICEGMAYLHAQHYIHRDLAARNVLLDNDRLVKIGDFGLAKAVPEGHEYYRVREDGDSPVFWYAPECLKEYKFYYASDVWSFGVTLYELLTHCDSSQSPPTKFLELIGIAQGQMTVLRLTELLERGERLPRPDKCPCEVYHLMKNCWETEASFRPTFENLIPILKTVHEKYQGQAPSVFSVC

[8] = target: DnaJ homolog subfamily A member 1 (Homo sapiens, UniProt P31689)
Sequence of DnaJ homolog subfamily A member 1 (P31689 whole entry): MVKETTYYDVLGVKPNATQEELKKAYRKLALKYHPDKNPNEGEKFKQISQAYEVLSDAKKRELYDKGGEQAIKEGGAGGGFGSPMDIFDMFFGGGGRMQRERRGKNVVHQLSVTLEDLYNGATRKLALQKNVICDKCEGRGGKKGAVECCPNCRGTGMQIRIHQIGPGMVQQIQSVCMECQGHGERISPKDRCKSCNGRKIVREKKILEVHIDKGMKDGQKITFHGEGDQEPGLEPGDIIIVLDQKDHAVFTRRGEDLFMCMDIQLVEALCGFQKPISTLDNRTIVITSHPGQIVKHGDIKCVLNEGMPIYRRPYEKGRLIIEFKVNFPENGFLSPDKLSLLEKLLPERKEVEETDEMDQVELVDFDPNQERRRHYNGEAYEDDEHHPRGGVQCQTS

[9] = target: T3, Serine/threonine-protein kinase LATS1 (Homo sapiens, UniProt O95835)
T3 sequence (O95835 whole entry): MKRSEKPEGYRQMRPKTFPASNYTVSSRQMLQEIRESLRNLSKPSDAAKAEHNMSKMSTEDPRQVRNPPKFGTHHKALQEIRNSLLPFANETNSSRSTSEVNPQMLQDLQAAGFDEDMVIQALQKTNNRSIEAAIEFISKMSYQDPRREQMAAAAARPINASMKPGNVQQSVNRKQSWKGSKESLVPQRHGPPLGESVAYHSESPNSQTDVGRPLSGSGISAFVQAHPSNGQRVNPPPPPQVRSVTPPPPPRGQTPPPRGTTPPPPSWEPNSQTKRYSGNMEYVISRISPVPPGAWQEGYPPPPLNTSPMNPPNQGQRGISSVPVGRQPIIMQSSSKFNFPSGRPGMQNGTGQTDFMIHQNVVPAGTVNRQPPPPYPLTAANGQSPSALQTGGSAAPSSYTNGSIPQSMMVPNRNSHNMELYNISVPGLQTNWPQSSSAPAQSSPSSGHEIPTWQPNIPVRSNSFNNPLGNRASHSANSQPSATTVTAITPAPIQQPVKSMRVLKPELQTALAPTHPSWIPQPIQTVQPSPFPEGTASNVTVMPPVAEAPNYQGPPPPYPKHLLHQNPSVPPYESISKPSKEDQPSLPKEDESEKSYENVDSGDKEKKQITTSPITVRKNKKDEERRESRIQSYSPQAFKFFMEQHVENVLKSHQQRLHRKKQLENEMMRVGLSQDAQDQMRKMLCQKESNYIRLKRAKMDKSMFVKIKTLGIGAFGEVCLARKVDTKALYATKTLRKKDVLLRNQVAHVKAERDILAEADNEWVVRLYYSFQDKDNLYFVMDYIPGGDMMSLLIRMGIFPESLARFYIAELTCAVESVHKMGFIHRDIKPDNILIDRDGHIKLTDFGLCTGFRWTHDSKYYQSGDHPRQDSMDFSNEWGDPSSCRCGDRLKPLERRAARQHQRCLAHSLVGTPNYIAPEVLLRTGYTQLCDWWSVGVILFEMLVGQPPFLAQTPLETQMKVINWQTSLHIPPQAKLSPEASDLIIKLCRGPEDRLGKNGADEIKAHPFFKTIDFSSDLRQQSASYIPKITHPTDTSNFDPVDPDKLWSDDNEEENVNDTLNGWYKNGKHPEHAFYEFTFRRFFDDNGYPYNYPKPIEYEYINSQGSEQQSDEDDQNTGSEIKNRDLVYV

[10] = target: Bone morphogenetic protein receptor type-1A (Homo sapiens, UniProt P36894)
Note: in the data inactive means no Kd found up to 30 µM.

Kd [1] | Kd (DNA topoisomerase 2-beta) | Kd [2] | Kd (Ephrin type-A receptor 7) | Kd [3] | Kd [4] | Kd [5] | Kd [6] | Kd [7] | Kd [8] | Kd [9] | Kd [10] | pKd (Ephrin type-A receptor 7) | Structure (SMILES)
> 30 µM (inactive) | > 30 µM (inactive) | > 30 µM (inactive) | > 30 µM (inactive) | > 30 µM (inactive) | > 30 µM (inactive) | > 30 µM (inactive) | > 30 µM (inactive) | > 30 µM (inactive) | > 30 µM (inactive) | > 30 µM (inactive) | > 30 µM (inactive) |  | CNC(=O)c1cccc2cc(Oc3ccnc4cc(OCC5(N)CC5)c(OC)cc34)ccc12 [LUCITANIB]
> 30 µM (inactive) | > 30 µM (inactive) | > 30 µM (inactive) | > 30 µM (inactive) | > 30 µM (inactive) | > 30 µM (inactive) | > 30 µM (inactive) | > 30 µM (inactive) | > 30 µM (inactive) | > 30 µM (inactive) | > 30 µM (inactive) | > 30 µM (inactive) |  | NC1(c2ccc(-c3nc4ccn5c(=O)[nH]nc5c4cc3-c3ccccc3)cc2)CCC1 [MK-2206]
> 30 µM (inactive) | > 30 µM (inactive) | > 30 µM (inactive) | > 30 µM (inactive) | > 30 µM (inactive) | > 30 µM (inactive) | > 30 µM (inactive) | 2.59 µM (active) | > 30 µM (inactive) | > 30 µM (inactive) | > 30 µM (inactive) | > 30 µM (inactive) |  | CN(C[C@@H]1COCCO1)S(=O)(=O)Nc1ccc2ccc3ncc(-c4cnn(C)c4)cc3c(=O)c2c1 [MK-2461]
> 30 µM (inactive) | > 30 µM (inactive) | > 30 µM (inactive) | > 30 µM (inactive) | > 30 µM (inactive) | > 30 µM (inactive) | > 30 µM (inactive) | > 30 µM (inactive) | > 30 µM (inactive) | > 30 µM (inactive) | > 30 µM (inactive) | > 30 µM (inactive) |  | FC(F)(F)c1ccc(/C=C/c2nc(COc3ccc(CCCCn4ccnn4)cc3)co2)cc1 [MUBRITINIB]
> 30 µM (inactive) | > 30 µM (inactive) | > 30 µM (inactive) | > 30 µM (inactive) | > 30 µM (inactive) | > 30 µM (inactive) | > 30 µM (inactive) | > 30 µM (inactive) | > 30 µM (inactive) | > 30 µM (inactive) | > 30 µM (inactive) | > 30 µM (inactive) |  | Cc1cnc(NC(=O)Nc2cc(Br)c(C)cc2OC[C@@H]2CNCCO2)cn1 [RABUSERTIB]
> 30 µM (inactive) | > 30 µM (inactive) | > 30 µM (inactive) | > 30 µM (inactive) | > 30 µM (inactive) | > 30 µM (inactive) | > 30 µM (inactive) | > 30 µM (inactive) | > 30 µM (inactive) | > 30 µM (inactive) | > 30 µM (inactive) | > 30 µM (inactive) |  | N#CC1(c2ccc(NC(=O)c3cccnc3NCc3ccncc3)cc2)CCCC1 [RIVOCERANIB]
> 30 µM (inactive) | > 30 µM (inactive) | > 30 µM (inactive) | > 30 µM (inactive) | > 30 µM (inactive) | > 30 µM (inactive) | > 30 µM (inactive) | 0.013 µM (active) | > 30 µM (inactive) | > 30 µM (inactive) | > 30 µM (inactive) | > 30 µM (inactive) |  | O=c1[nH]ccc2cc(OC3CCNCC3)ccc12 [SAR-407899 FREE BASE]
> 30 µM (inactive) | > 30 µM (inactive) | > 30 µM (inactive) | > 30 µM (inactive) | > 30 µM (inactive) | > 30 µM (inactive) | > 30 µM (inactive) | > 30 µM (inactive) | > 30 µM (inactive) | > 30 µM (inactive) | 4.62 µM (active) | > 30 µM (inactive) |  | Cn1cc(-c2cnn3c(N)c(Br)c([C@@H]4CCCNC4)nc23)cn1 [SCH-900776]
> 30 µM (inactive) | > 30 µM (inactive) | > 30 µM (inactive) | > 30 µM (inactive) | > 30 µM (inactive) | > 30 µM (inactive) | > 30 µM (inactive) | > 30 µM (inactive) | > 30 µM (inactive) | > 30 µM (inactive) | > 30 µM (inactive) | > 30 µM (inactive) |  | CO[C@H]1C[C@@H]2CC[C@@H](C)[C@@](O)(O2)C(=O)C(=O)N2CCCC[C@H]2C(=O)O[C@H]([C@H](C)C[C@@H]2CC[C@@H](OC(=O)C(C)(CO)CO)[C@H](OC)C2)CC(=O)[C@H](C)/C=C(\C)[C@@H](O)[C@@H](OC)C(=O)[C@H](C)C[C@H](C)/C=C/C=C/C=C/1C [TEMSIROLIMUS]
> 30 µM (inactive) | > 30 µM (inactive) | > 30 µM (inactive) |  | > 30 µM (inactive) | > 30 µM (inactive) | > 30 µM (inactive) | > 30 µM (inactive) | > 30 µM (inactive) | > 30 µM (inactive) | > 30 µM (inactive) | > 30 µM (inactive) | 7.66 | COc1cc2c(Nc3ccc(Cl)c(Cl)c3F)ncnc2cc1OC[C@@H]1C[C@@H]2CN(C)C[C@@H]2C1 [TESEVATINIB]

Structure (SMILES) | Kd [1] | Kd (DNA topoisomerase 2-beta) | Kd [2] | Kd (Ephrin type-A receptor 7) | Kd [3] | Kd [4] | Kd [5] | Kd [6] | Kd [7] | Kd [8] | Kd [9] | Kd [10] | pKd (Ephrin type-A receptor 7)
CN1CCN(CCOc2cc(OC3CCOCC3)c3c(Nc4c(Cl)ccc5c4OCO5)ncnc3c2)CC1 [SARACATINIB] | > 30 µM (inactive) | > 30 µM (inactive) | > 30 µM (inactive) | > 30 µM (inactive) | > 30 µM (inactive) | > 30 µM (inactive) | > 30 µM (inactive) | > 30 µM (inactive) | > 30 µM (inactive) | > 30 µM (inactive) | > 30 µM (inactive) | 0.06 µM (active) | 
